Measurements taken from ChEMBL document CHEMBL3991601, “The target landscape of clinical kinase drugs” (Science, 2017).
The source made the active and inactive calls. For most assays here, no stated cut-off is given here; in the data, actives have a measured Kd and inactives only a lower limit.

Legend:
[1] = target: T1, Acyl-CoA dehydrogenase family member 11 (Homo sapiens, UniProt Q709F0)
T1 sequence (Q709F0 whole entry): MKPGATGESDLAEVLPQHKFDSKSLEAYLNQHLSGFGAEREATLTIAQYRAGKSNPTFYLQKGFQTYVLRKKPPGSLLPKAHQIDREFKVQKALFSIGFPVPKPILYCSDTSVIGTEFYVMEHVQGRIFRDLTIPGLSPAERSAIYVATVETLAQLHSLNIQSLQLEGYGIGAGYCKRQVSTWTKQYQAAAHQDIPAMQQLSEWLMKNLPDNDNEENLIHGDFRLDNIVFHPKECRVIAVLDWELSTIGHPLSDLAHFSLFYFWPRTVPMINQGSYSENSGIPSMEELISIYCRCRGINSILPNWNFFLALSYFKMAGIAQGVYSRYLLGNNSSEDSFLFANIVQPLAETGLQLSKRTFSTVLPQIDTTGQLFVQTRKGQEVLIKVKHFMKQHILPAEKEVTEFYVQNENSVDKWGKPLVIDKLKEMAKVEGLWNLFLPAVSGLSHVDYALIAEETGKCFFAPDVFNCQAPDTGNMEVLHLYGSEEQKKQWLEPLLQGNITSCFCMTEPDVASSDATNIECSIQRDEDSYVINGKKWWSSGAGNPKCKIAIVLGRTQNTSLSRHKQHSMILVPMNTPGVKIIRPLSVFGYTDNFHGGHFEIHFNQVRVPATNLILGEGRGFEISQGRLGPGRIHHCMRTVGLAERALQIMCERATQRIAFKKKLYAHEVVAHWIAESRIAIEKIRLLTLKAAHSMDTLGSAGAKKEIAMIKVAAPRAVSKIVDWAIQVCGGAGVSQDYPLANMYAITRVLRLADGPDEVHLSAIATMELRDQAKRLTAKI

Activin receptor type-1B = target: T2, Activin receptor type-1B (Homo sapiens, UniProt P36896)
T2 sequence (P36896 whole entry): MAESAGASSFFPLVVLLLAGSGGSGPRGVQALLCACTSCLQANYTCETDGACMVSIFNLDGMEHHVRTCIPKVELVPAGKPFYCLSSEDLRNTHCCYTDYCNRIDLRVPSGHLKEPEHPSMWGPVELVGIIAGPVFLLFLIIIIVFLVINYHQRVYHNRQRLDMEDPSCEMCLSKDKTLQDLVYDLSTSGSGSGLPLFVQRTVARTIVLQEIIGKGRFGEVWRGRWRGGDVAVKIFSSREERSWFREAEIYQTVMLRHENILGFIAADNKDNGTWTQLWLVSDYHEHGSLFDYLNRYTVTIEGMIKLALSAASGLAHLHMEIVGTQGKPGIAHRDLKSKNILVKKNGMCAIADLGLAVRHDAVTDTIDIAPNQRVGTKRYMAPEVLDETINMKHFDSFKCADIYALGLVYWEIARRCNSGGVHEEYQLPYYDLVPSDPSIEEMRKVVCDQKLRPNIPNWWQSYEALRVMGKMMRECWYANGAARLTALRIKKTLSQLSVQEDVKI

[2] = target: Bone morphogenetic protein receptor type-1B (Homo sapiens, UniProt O00238)
[3] = target: Serine/threonine-protein kinase MRCK alpha (Homo sapiens, UniProt Q5VT25)
[4] = target: Cyclin-dependent kinase 3 (Homo sapiens, UniProt Q00526)
[5] = target: Cyclin-dependent kinase 7 (Homo sapiens, UniProt P50613)
[6] = target: Casein kinase I isoform gamma-1 (Homo sapiens, UniProt Q9HCP0)
[7] = target: Epithelial discoidin domain-containing receptor 1 (Homo sapiens, UniProt Q08345)
[8] = target: T3, Interleukin-1 receptor-associated kinase 3 (Homo sapiens, UniProt Q9Y616)
T3 sequence (Q9Y616 whole entry): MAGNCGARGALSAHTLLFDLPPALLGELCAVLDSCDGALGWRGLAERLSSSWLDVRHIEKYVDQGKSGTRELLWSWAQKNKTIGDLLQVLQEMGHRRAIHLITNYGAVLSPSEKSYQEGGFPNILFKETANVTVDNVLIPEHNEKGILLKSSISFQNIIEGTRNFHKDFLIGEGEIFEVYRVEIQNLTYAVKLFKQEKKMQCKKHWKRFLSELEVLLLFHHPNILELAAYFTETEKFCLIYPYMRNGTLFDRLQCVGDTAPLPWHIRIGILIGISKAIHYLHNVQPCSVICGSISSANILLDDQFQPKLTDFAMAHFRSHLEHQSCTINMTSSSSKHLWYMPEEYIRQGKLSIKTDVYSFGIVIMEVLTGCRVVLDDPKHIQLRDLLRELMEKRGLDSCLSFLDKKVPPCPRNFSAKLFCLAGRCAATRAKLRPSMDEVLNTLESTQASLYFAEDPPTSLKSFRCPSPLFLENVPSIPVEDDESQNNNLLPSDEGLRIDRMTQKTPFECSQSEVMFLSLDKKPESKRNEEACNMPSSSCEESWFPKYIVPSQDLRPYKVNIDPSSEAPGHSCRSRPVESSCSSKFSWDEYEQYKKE

LIM domain kinase 1 = LIM domain kinase 1 (Homo sapiens, UniProt P53667)
[9] = target: Serine/threonine-protein kinase SIK2 (Homo sapiens, UniProt Q9H0K1)

Measured: Kd

Chain of Bone morphogenetic protein receptor type-1B (O00238 whole entry): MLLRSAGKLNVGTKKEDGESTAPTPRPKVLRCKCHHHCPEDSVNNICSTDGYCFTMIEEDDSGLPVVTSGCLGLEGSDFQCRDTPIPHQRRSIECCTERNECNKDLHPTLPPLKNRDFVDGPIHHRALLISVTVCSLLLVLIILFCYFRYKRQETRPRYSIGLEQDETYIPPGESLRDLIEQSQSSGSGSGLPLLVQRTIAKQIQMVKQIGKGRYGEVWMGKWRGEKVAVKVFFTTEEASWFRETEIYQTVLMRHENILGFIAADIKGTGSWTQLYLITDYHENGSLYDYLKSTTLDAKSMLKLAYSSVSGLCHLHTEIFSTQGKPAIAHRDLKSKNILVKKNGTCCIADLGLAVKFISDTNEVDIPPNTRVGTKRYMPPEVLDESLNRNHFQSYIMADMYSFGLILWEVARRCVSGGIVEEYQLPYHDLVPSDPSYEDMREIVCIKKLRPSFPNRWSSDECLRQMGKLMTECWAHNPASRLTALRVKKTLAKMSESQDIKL
Chain of LIM domain kinase 1 (P53667 whole entry, the tested form may be a part): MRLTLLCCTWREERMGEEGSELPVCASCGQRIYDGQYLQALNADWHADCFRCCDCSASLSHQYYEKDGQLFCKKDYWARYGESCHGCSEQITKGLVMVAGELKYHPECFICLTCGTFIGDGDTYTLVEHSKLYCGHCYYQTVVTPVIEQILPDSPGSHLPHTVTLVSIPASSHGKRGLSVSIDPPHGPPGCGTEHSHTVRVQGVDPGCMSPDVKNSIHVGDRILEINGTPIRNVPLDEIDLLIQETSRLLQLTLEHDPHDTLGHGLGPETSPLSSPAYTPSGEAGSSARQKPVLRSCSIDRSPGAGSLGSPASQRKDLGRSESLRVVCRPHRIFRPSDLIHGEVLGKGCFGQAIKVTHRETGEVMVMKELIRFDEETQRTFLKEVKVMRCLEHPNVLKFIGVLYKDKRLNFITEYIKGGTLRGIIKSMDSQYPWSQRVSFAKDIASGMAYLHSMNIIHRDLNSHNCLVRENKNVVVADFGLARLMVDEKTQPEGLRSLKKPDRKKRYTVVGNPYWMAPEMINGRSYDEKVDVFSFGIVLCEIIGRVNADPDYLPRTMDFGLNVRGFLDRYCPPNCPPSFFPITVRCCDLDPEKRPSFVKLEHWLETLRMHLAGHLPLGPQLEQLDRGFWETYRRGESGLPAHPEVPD
Chain of Serine/threonine-protein kinase MRCK alpha (Q5VT25 whole entry): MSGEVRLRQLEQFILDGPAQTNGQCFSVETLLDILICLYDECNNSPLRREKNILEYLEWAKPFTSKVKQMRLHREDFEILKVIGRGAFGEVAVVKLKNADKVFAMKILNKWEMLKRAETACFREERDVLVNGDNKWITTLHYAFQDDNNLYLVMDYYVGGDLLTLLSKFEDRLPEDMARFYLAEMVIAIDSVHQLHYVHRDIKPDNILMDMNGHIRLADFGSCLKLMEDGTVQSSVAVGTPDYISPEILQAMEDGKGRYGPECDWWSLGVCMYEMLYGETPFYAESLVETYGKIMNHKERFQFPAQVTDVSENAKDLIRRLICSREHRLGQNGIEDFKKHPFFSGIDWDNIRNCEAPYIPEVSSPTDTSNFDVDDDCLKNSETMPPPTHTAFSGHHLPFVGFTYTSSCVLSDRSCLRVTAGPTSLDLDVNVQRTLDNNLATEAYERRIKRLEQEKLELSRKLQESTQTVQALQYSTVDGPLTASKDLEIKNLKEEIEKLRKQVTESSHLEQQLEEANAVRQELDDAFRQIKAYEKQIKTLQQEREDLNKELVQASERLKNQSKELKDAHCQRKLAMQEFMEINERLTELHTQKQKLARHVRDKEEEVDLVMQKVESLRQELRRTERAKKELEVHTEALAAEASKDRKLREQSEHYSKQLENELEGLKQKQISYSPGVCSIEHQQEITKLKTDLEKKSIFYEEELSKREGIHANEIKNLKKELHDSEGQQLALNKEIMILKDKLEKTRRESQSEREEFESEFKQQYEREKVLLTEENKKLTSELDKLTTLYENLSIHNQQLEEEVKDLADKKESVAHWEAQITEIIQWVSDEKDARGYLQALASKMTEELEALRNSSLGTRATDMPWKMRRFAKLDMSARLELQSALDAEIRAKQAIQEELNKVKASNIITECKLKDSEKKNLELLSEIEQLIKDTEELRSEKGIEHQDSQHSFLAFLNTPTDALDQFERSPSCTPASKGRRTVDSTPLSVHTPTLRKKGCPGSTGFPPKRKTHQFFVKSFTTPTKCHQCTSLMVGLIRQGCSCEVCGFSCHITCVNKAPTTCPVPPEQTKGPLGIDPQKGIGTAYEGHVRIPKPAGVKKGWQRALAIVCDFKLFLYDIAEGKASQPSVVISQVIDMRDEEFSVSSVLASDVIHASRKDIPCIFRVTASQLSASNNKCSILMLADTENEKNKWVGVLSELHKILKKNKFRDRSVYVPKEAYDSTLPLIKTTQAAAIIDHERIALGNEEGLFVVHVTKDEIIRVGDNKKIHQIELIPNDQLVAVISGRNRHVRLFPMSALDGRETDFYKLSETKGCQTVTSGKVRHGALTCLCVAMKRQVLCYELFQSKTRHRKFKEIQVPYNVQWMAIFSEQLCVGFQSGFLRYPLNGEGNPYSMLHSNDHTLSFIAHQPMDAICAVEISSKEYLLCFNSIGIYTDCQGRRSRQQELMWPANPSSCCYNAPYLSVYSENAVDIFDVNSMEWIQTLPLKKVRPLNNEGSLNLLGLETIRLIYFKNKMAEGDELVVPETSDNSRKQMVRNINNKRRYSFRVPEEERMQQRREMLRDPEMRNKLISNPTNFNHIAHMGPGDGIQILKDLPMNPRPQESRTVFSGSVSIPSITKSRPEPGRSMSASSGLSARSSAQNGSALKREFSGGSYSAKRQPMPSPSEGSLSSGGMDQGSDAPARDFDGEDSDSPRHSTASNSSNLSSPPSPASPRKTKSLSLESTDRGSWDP
Chain of Cyclin-dependent kinase 7 (P50613 whole entry, canonical isoform): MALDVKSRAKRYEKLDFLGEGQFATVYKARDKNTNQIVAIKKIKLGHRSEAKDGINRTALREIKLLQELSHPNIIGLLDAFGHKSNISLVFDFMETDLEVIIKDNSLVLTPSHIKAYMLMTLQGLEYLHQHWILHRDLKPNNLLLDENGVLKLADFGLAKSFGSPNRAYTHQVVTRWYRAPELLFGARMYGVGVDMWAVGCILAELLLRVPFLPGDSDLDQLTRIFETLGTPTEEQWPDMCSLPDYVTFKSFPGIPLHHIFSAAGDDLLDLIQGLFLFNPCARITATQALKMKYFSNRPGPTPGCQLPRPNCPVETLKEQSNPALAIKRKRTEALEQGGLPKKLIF
Chain of Serine/threonine-protein kinase SIK2 (Q9H0K1 whole entry): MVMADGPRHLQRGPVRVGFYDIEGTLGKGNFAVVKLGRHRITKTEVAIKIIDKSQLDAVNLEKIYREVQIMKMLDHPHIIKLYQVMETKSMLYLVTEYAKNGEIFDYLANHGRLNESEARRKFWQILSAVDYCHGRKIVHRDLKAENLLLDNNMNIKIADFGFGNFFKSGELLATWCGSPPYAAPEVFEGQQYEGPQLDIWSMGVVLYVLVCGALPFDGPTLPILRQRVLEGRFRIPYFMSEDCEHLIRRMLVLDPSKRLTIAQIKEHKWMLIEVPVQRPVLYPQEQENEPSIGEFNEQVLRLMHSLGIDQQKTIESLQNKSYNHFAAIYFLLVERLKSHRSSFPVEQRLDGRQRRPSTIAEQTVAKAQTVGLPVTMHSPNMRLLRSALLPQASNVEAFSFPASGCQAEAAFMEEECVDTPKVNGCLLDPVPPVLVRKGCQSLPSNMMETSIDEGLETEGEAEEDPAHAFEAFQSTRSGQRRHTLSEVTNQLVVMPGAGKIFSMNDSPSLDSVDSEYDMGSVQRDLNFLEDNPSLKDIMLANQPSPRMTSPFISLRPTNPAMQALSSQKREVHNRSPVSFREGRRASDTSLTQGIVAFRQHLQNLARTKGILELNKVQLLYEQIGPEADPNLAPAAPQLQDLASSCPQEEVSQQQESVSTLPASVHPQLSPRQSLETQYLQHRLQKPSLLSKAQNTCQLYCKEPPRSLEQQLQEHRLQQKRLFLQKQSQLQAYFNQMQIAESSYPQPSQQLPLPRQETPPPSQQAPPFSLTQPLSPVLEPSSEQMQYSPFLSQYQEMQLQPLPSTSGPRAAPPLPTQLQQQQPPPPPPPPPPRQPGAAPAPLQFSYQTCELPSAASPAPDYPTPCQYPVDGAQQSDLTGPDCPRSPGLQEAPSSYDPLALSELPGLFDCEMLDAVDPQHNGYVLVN
Chain of Casein kinase I isoform gamma-1 (Q9HCP0 whole entry, the tested form may be a part, canonical isoform): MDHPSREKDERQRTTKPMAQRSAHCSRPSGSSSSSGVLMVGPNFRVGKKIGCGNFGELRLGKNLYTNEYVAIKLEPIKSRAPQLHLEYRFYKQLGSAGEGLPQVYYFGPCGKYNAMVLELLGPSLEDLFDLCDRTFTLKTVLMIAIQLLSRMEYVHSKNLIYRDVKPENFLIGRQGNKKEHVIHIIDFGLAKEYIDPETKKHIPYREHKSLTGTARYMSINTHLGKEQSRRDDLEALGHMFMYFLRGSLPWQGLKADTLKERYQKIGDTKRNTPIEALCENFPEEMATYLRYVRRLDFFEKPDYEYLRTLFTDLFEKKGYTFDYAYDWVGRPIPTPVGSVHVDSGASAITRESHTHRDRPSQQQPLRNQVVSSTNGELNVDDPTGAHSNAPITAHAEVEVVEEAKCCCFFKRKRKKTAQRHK
Chain of Cyclin-dependent kinase 3 (Q00526 whole entry): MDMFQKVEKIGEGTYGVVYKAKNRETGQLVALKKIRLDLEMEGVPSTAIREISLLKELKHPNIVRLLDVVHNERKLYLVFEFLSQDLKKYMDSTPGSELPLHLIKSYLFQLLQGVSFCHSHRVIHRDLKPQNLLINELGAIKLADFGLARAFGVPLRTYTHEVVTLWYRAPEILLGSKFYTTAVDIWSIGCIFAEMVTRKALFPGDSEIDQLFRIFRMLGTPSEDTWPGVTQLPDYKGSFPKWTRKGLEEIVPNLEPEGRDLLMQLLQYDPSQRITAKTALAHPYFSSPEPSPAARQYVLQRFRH

O=C(NC[C@H](O)CO)c1ccncc1Nc1ccc(I)cc1F [PIMASERTIB]
inactive: [1] > 30 µM | Activin receptor type-1B > 30 µM | [2] > 30 µM | [3] > 30 µM | [4] > 30 µM | [5] > 30 µM | [6] > 30 µM | [7] > 30 µM | [8] > 30 µM | LIM domain kinase 1 > 30 µM | [9] > 30 µM

O=C(NOC[C@H](O)CO)c1ccc(F)c(F)c1Nc1ccc(I)cc1F [MIRDAMETINIB]
inactive: [1] > 30 µM | Activin receptor type-1B > 30 µM | [2] > 30 µM | [3] > 30 µM | [4] > 30 µM | [5] > 30 µM | [6] > 30 µM | [7] > 30 µM | [8] > 30 µM | LIM domain kinase 1 > 30 µM | [9] > 30 µM

COc1ccc2c(OCc3nnc4ccc(-c5ccccc5)nn34)ccnc2c1 [AMG-208]
inactive: [1] > 30 µM | Activin receptor type-1B > 30 µM | [2] > 30 µM | [3] > 30 µM | [4] > 30 µM | [5] > 30 µM | [6] > 30 µM | [7] > 30 µM | [8] > 30 µM | LIM domain kinase 1 > 30 µM | [9] > 30 µM
